Measured values taken from patent US9271946B2, “Use of a RAR antagonist or inverse agonist for the treatment of chemotherapy and/or radiation therapy side effects” (IO Therapeutics, Inc., priority 2006, dated 2016).

Columns and labels:
[1] = test system: CPM-induced leukopenic male BDF1 mice; experiment: cyclophosphamide-induced mouse model of leukopenia, blood cell recovery (Example 1); format: in vivo; conditions: for lymphocyte counts: mean±SEM
Excerpt: Mice purchased from Charles River Laboratories (Wilmington, Mass.) were housed individually in micro-isolater cages in a 12-hour light/dark cycle. They were housed under pathogen-free conditions, and received a normal standard diet and water ad libitum. They were acclimated for one week at the Association for Assessment and Accreditation of Laboratory Animal Care (AAALAC) accredited animal facility (Allergan Inc., Irvine, Calif.) prior to experiments. Study designs were approved by the Institutional Animal Care and Use Committee. Body weights were monitored throughout each study. Weight of the mice was in the range of 22-27 g at the day of treatment initiation. The mice were healthy, not previously used in other experimental procedures.
(§1) Leukopenia was induced in male BDF1 mice (C57Bl×DBA2, 7.5-12 weeks) by an intra-peritoneal (i.p.) injection of 200 mg/kg Cyclophosphamide (CPM, Sigma-Aldrich, Saint Louis, Mo.) in 0.2 ml saline. The effect of VTP 194310 on leukocyte recovery was evaluated by oral gavage of animals with 1 mg/kg of VTP 194310 as indicated in the results section. VTP 194310 (dissolved in DMSO) was diluted through peanut oil as the vehicle (dosed at 5 ml/kg). Control mice were given DMSO and vehicle alone. As a positive control, granulocytopoiesis was stimulated in CPM-treated mice by a single sub-cutaneous injection of 10 μg/kg pegylated recombinant methionyl human granulocyte colony-stimulating factor (PEG-r-metHuG-CSF) (Neulasta, Pegfilgrastim; Amgen, Thousand Oaks, Calif.) on day 2. Three separate experiments were performed.
(§2) Peripheral blood (60 μl) was collected under anaesthesia from the retroorbital sinus of the mice with heparinized capillary tubes and transferred to EDTA-coated microtainer tubes (Becton Dickinson, Franklin Lakes, N.J.). White cell, neutrophil, and lymphocyte counts were obtained for at least three mice per group by diluting the blood 1:4 with PBS containing 5% bovine serum albumin (Fraction V; Sigma, Saint Louis, Mo.), and by using an Advia 120 Hematology System (Bayer HealthCare Diagnostics Division, Tarrytown, N.Y.).

[2] = test system: CPM-induced leukopenic mice; experiment: peripheral and systemic neutrophil recovery in CPM-induced leukopenic mice, spleen and bone marrow (Example 2); format: in vivo, mouse
Description: as §1, §2
Immature (Gr-1^low/CD11b^+ve) and mature (Gr-1^+ve/CD11b^+ve) neutrophils were identified in single cells suspensions prepared from spleen and bone marrow (femur) aspirates by double immunostaining using PE- and FITC-conjugated monoclonal antibodies (Pharmingen, San Diego, Calif.). Cells were analysed on a FACS Calibur interfaced with CellQuest Pro software program (Becton Dickinson, San Jose, Calif.).
These mice were gavaged with VTP 194310 on days −1 to 2 in relation to CPM treatment.

RARα = biological target: T1, RARα (Homo sapiens, UniProt P10276); experiment: binding to RARα
T1 sequence (P10276 1-462): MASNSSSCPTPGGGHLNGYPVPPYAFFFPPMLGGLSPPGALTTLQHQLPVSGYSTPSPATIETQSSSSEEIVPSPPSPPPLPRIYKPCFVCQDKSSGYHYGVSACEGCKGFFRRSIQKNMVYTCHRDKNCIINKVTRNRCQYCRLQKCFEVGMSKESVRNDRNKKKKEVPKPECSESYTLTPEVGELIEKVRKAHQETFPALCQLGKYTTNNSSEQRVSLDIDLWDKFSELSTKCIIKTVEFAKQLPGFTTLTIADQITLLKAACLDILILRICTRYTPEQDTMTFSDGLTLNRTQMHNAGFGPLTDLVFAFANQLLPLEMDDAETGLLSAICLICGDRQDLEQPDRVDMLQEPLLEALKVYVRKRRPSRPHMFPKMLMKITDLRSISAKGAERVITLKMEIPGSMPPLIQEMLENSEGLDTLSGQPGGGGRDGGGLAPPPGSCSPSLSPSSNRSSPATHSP

RARβ = biological target: T2, RARβ (Homo sapiens, UniProt P10826); experiment: binding to RARβ
T2 sequence (P10826 1-455): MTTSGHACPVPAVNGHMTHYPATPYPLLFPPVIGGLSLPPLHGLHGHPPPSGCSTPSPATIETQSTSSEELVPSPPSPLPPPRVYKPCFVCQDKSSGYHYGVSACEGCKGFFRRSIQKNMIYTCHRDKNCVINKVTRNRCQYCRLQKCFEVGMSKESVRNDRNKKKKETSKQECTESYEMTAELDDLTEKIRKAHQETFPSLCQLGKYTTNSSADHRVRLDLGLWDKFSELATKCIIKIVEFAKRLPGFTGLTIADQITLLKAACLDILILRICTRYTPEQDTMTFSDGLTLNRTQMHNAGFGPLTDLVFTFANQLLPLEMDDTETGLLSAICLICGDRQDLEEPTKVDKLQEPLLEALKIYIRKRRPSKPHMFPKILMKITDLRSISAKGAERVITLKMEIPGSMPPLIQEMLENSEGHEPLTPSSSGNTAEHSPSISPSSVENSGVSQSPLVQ

[3] = test system: S. aureus 29213 infection in leukopenic female BDF1 mice; experiment: protective effect against S. aureus infection in leukopenic mice (Example 3); format: in vivo, mouse
Description: S. aureus 29213 obtained from American Type Culture Collection (ATCC) (Rockville, Md.) was used to induce infections in leukopenic female BDF1 mice (20-22 g). S. aureus were cultured at 37° C. in Tryptic Soy broth until the mid-logarithmic phase of growth (optical density at 600 nm=0.3), harvested, and washed with PBS. The number of bacteria was enumerated by serial dilution with PBS, plating onto blood agar, and counting colony-forming units (CFU) 48 hours after incubation at 37° C. The suspension was adjusted to […].
Mice were rendered leukopenic by i.p. injection of CPM at 200 mg/kg. A lethal dose (LD) of S. aureus was determined by intravenous injections of 1×10^3 to 1×10^8 CFU to groups of 10 mice 4 days after CPM treatment. 10-day survivors were enumerated, and the LD95 of S. aureus was calculated by Probit analysis. Treatment with VTP 194310 (at 1 mg/kg) was started one day before CPM and continued for 3 more days. Four days after CPM, the animals were infected intravenously with 4.1 and 2.5×10^6 CFU of S. aureus in 200 μl of PBS. Surviving animals were recorded daily for 14 days after the challenge. […] All experiments were performed in compliance with relevant laws and institutional guidelines, and were approved by the Animal Care and Use Committee.

[4] = 1 mg/kg oral at days −4 to −1 and at days 0 to 3
[5] = day 8, 1 mg/kg oral at days −4 to −1 and at days 0 to 3, CPM day 0

CCc1ccc(C2=CC(C)(C)Sc3ccc(C#Cc4ccc(C(=O)O)cc4)cc32)cc1 [VTP 194310, 4-[[4-(4-ethylphenyl)-2,2-dimethyl-(2H)-thiochromen-6-yl]-ethynyl]-benzoic acid]
numbers of leukocytes and neutrophils generated ([1]; 1 mg/kg oral at days 4 to 7): improved the numbers of leukocytes and neutrophils generated, but to an extent that was considerably less | earliest day with significant differences in recovery [1, 4]: 5 day post-CPM | rise of leukocyte and neutrophil counts compared to control leukopenic mice [1, 4]: rose quicker | leukocyte recovery ([1]; CPM 200 mg/kg i.p., 1 mg/kg oral gavage): improved leukocyte recovery | leukocyte counts in blood versus mice treated with CPM alone [1, 5]: ~3 fold | neutrophil counts in blood versus mice treated with CPM alone [1, 5]: ~3 fold | lymphocyte counts ([1]; day 8, dosed days 0 to 3): 4.49±0.52 ×10^3/μl | lymphocyte counts ([1]; day 8, dosed days −4 to −1): 4.53±0.39 ×10^3/μl | number of lymphocytes in blood compared to control leukopenic mice and Peg-r-metHuG-CSF mice ([1]; dosed days −4 to −1 and days 0 to 3): increased number of lymphocytes | absolute number of immature granulocytes (Gr-1low/CD11b+ve) in the spleen ([2]; day 7): 0.93±0.02 ×10^7 | absolute number of Gr-1+ve/CD11b+ve cells in the spleen ([2]; days 6 and 7): significantly increased | immature granulocytes (Gr-1low/CD11b+ve) in the spleen ([2]; days 6 and 7): elevated | neutrophil, and lymphocyte counts compared to control recovering mice ([2]; days 6 to 8, gavaged days −1 to 2): significantly elevated | spleen weight compared to controls ([2]; days 7 and 8, gavaged days −1 to 2): increased | Gr-1+ve/CD11b+ve cells in the bone marrow ([2]; gavaged days −1 to 2): increased prevalence | Ki (RARα): 3 nM | Ki (RARβ): 2 nM | protective effect against S. aureus infection compared to controls ([3]; Logrank p=0.0031 (4.1×10^6 CFU), p<0.0001 (2.5×10^6 CFU)): very significant protective effect | mice alive ([3]; day 10, each of the doses of S. aureus (4.1 and 2.5×10^6 CFU), 1 mg/kg days −1 to 2): 83% | mice alive ([3]; day 14, 2.5×10^6 CFU S. aureus): 67% | mice alive ([3]; day 14, higher dose of bacteria (4.1×10^6 CFU)): 42%
